Reference: patent publication US20120077836A1, “METHODS OF ADMINISTERING (4AR,10AR)-1-N-PROPYL-1,2,3,4,4A,5,10,10A-OCTAHYDROBENZO [G] QUINOLINE-6,7-DIOL AND RELATED COMPOUNDS ACROSS THE ORAL MUCOSA, THE NASAL MUCOSA OR THE SKIN AND PHARMACEUTICAL COMPOSITIONS THEREOF” (priority 2009, published 2012)
Where “and” joins values, the source holds several entries; their conditions need not be identical. Equal values may be shown once. Where a name gives a salt, the structure may show the parent alone. Read-outs that look alike come from different tables or passages of the source.

Assay: Intravenous and buccal pharmacokinetic study in the minipig
Type: in vivo
Procedure: The test article was compound 10. The vehicles for the test article were Sterile saline (0.9% NaCl) (intravenous administration) supplied by Baxter, Norfolk or Ascorbic acid reconstituted in Water for Injection (buccal administration) supplied by VWR International, Leicestershire. Formulations were prepared on the day of dosing.
Three male minipigs of the Göttingen ApS strain were supplied by Ellegaard Göttingen, Dalmose, Denmark. At initiation of dosing, animals were approximately 15 to 17 weeks old. Each animal was dosed once on three separate occasions according to the following study design:
Animals were deprived of food overnight and anaesthetised with isoflurane in oxygen (administered by facemask), prior to each dosing occasion.
Intravenous administrations were performed by slow manual injection via a temporary catheter placed in the ear vein whilst under anaesthesia, animals were allowed to recover from the anaesthesia immediately after dosing. Whilst anaesthetised, a catheter was inserted into the jugular vein and secured in place for the purpose of blood collection. The catheter was filled with heparin (250 iu/mL in 0.9% sodium chloride). The exterior portion of the catheter was routed from the ventral neck to the dorsum of the minipig and protected by bandaging. The distal end of the catheter was capped and placed in a re-sealable pouch within the bandage. The jugular catheter was retained in place and flushed with heparinised saline every 24 hours.
Buccal administrations were performed by applying the test formulation to the buccal membrane for 5 minutes while the animal was anaesthetised. Any residual formulation remaining in the mouth after the 5 minute application was […]. Animals were allowed to recover from the anaesthesia immediately after dosing.
, all animals on Day 3 following buccal administration of a low dose and all animals on Day 5 following buccal administration of a high dose for pharmacokinetic analysis. The samples (1.0 mL) were collected from the jugular vein (via catheter) into tubes containing EDTA anticoagulant. Prior to addition of the blood sample, 100 microL of a stabiliser (2% beta-mercaptoethanol containing 20 mg/mL ascorbic acid) was added to each pot. The stabiliser was prepared fresh on each day of sample collection. Samples were collected as follows: • Day 1: 5, 10, 15, 30 and 45 minutes and 1, 2, 4, 6, 8, 12 and 16 hours post-dose • Day 3: pre-dose and at 5, 10, 15, 30 and 45 minutes and 1, 2, 4, 6, 8, 12, 16 and 24 hours post-dose • Day 5: pre-dose and at 5, 10, 15, 30 and 45 minutes and 1, 2, 4, 6, 8, 12, 16 and 24 hours post-dose
The times of the blood sampling were generally adhered to. The greatest deviation from the scheduled timepoints was one minute late at the 5 minute timepoint on Day 3. The blood samples were centrifuged within one hour of sample collection and the resultant plasma was frozen prior to analysis.
The plasma concentrations of compound 10 were determined after solid phase extraction of the plasma samples followed by high performance liquid chromatography with tandem mass spectrometric detection (LC-MS/MS) using a sample volume of about 100 microL.
Internal standard solution, containing the internal standard of compound 10 was added to thawed plasma samples (100 microL aliquot). The SPE plate (Oasis HLB, 10 mg) was conditioned with methanol (500 microL) followed by water (500 microL). The sample (approx. 500 microL aliquot) was transferred to the pre-conditioned SPE plate. The sample was then passed through the cartridge, which was then washed with water:methanol (90:10 v/v, 0.5 mL). The sample was then eluted into a fresh 96 well polypropylene collection plate with 20 mM ammonium formate (aq): acetonitrile: formic acid (50:50:2 v/v/v, 250 microL). The organic component of the eluted samples was then evaporated under a gentle stream of nitrogen until approximately 50% of the original volume was remaining. […]

[1] = IV 0.0025 mg/kg, individual animals 1-3, hydrobromide, 0.0025 mg/kg
[2] = buccal 0.010 mg/kg, individual animals 1-3, hydrobromide
[3] = buccal 40 μg/kg versus 10 μg/kg, males
[4] = buccal 0.040 mg/kg, individual animals 1-3, hydrobromide
[5] = buccal, 0.010 to 0.040 mg/kg (4-fold dose increase)

CCCN1CCC[C@@H]2Cc3c(ccc(O)c3O)C[C@H]21 [compound 10, (4aR,10aR)-1-n-Propyl-1,2,3,4,4a,5,10,10a-octahydro-benzo[g]quinoline-6,7-diol hydrobromide]
Plasma concentration Day 1 Hour 0.08 [1]: 1.72 ng/mL and 1.92 ng/mL | Plasma concentration Day 1 Hour 0.17 [1]: 0.976 ng/mL and 1.26 ng/mL | Plasma concentration Day 1 Hour 0.25 [1]: 1.17 ng/mL and 0.828 ng/mL | Plasma concentration Day 1 Hour 0.5 [1]: 0.922 ng/mL and 0.536 ng/mL | Plasma concentration Day 1 Hour 0.75 [1]: 0.656 ng/mL and 0.667 ng/mL | Plasma concentration Day 1 Hour 1 [1]: 0.432 ng/mL and 0.451 ng/mL | Plasma concentration Day 1 Hour 2 [1]: 0.196 ng/mL and 0.352 ng/mL | Plasma concentration Day 1 Hour 4 [1]: 0.0763 ng/mL and 0.115 ng/mL | Plasma concentration Day 1 Hour 6 [1]: 0.0562 ng/mL and 0.0756 ng/mL | Plasma concentration Day 1 Hour 8 [1]: 0.0339 ng/mL and 0.0407 ng/mL | Plasma concentration Day 1 Hour 12 [1]: 0.0299 ng/mL and 0.0209 ng/mL | Plasma concentration Day 1 Hour 16 (IV 0.0025 mg/kg, individual animals 1-3, values below LLOQ 10 pg/mL estimated, hydrobromide, 0.0025 mg/kg): 0.00925 ng/mL and 0.0101 ng/mL | time of maximum plasma concentration (IV bolus 0.0025 mg/kg, first sampling time): 5 min | time of maximum plasma concentration (buccal 0.010 mg/kg and 0.040 mg/kg): about 0.75 hours | Plasma concentration Day 1 Hour 4 [2]: 0.0983 ng/mL and 0.0917 ng/mL and 0.206 ng/mL | Plasma concentration Day 1 Hour 6 [2]: 0.0845 ng/mL and 0.0265 ng/mL and 0.0758 ng/mL | Plasma concentration Day 1 Hour 8 [2]: 0.0467 ng/mL and 0.0261 ng/mL and 0.0554 ng/mL | Plasma concentration Day 1 Hour 12 [2]: 0.0268 ng/mL and 0.0234 ng/mL and 0.157 ng/mL | Plasma concentration Day 3 Hour 0.08 [2]: 0.0161 ng/mL and 0.379 ng/mL and 0.0552 ng/mL | Plasma concentration Day 3 Hour 0.17 [2]: 0.117 ng/mL and 0.105 ng/mL and 0.221 ng/mL | Plasma concentration Day 3 Hour 0.25 [2]: 0.134 ng/mL and 0.185 ng/mL and 0.622 ng/mL | Plasma concentration Day 3 Hour 0.5 [2]: 0.758 ng/mL and 0.556 ng/mL | Plasma concentration Day 3 Hour 0.75 [2]: 1.1 ng/mL and 0.964 ng/mL | Plasma concentration Day 3 Hour 1 [2]: 0.791 ng/mL and 0.817 ng/mL | Plasma concentration Day 3 Hour 2 [2]: 0.501 ng/mL and 0.372 ng/mL | Plasma concentration Day 1 Hour 24 (buccal 0.010 mg/kg, individual animals 1-3, values below LLOQ 10 pg/mL estimated, hydrobromide): <0.002 ng/mL and 0.00494 ng/mL and 0.0261 ng/mL | Increase in AUC0-∞ (first line) [3]: 12.1 fold | Increase in AUC0-∞ (second line) [3]: 18.9 fold | increase in Cmax [3]: 11.9 fold | Plasma concentration Day 1 Hour 4 [4]: 2.56 ng/mL and 0.746 ng/mL and 2.49 ng/mL | Plasma concentration Day 1 Hour 6 [4]: 0.781 ng/mL and 0.278 ng/mL and 1.73 ng/mL | Plasma concentration Day 1 Hour 8 [4]: 0.445 ng/mL and 0.212 ng/mL and 0.91 ng/mL | Plasma concentration Day 1 Hour 12 [4]: 0.272 ng/mL and 0.139 ng/mL and 1.4 ng/mL | Plasma concentration Day 1 Hour 16 [4]: 0.142 ng/mL and 0.0584 ng/mL and 0.677 ng/mL | Plasma concentration Day 1 Hour 24 [4]: 0.0443 ng/mL and 0.0789 ng/mL and 0.233 ng/mL | Plasma concentration Day 5 Hour 0.08 [4]: 2.75 ng/mL and 0.695 ng/mL and 0.427 ng/mL | Plasma concentration Day 5 Hour 0.17 [4]: 6.06 ng/mL and 1.93 ng/mL and 1.82 ng/mL | Plasma concentration Day 5 Hour 0.25 [4]: 9.14 ng/mL and 3.33 ng/mL and 3.89 ng/mL | Plasma concentration Day 5 Hour 0.5 [4]: 8.23 ng/mL and 5.31 ng/mL | Plasma concentration Day 5 Hour 0.75 [4]: 10.7 ng/mL and 10.5 ng/mL | Plasma concentration Day 5 Hour 1 [4]: 10.8 ng/mL and 9.58 ng/mL | Plasma concentration Day 5 Hour 2 [4]: 8.68 ng/mL and 6.34 ng/mL and 3.88 ng/mL | increase in AUC0-∞ [5]: 12 fold | increase in Cmax [5]: 12 fold | concentration at 0.5 h (male, Göttingen, in vivo, 0.01 mg/kg, buccal 0.010 mg/kg, individual animals 1-3, read-out: Plasma concentration Day 3 Hour 0.5): 0.943 ng/mL | concentration at 0.75 h (male, Göttingen, in vivo, 0.01 mg/kg, buccal 0.010 mg/kg, individual animals 1-3, read-out: Plasma concentration Day 3 Hour 0.75): 1.07 ng/mL | concentration at 1 h (male, Göttingen, in vivo, 0.01 mg/kg, buccal 0.010 mg/kg, individual animals 1-3, read-out: Plasma concentration Day 3 Hour 1): 1 ng/mL | concentration at 2 h (male, Göttingen, in vivo, 0.01 mg/kg, buccal 0.010 mg/kg, individual animals 1-3, read-out: Plasma concentration Day 3 Hour 2): 0.589 ng/mL | concentration at 16 h (male, Göttingen, in vivo, 0.01 mg/kg, buccal 0.010 mg/kg, individual animals, below LLOQ 10 pg/mL, estimated, read-out: Plasma concentration Day 1 Hour 16): 0.00691 ng/mL | concentration at 16 h (male, Göttingen, in vivo, 0.01 mg/kg, buccal 0.010 mg/kg, mean (one animal only), read-out: Plasma concentration Day 1 Hour 16, Mean): 0.00691 ng/mL | concentration at 4 h (male, Göttingen, in vivo, 0.01 mg/kg, buccal 0.010 mg/kg, mean, read-out: Plasma concentration Day 1 Hour 4, Mean): 0.132 ng/mL | concentration at 6 h (male, Göttingen, in vivo, 0.01 mg/kg, buccal 0.010 mg/kg, mean, read-out: Plasma concentration Day 1 Hour 6, Mean): 0.0623 ng/mL | concentration at 8 h (male, Göttingen, in vivo, 0.01 mg/kg, buccal 0.010 mg/kg, mean, read-out: Plasma concentration Day 1 Hour 8, Mean): 0.0427 ng/mL | concentration at 12 h (male, Göttingen, in vivo, 0.01 mg/kg, buccal 0.010 mg/kg, mean, read-out: Plasma concentration Day 1 Hour 12, Mean): 0.0691 ng/mL | concentration at 24 h (male, Göttingen, in vivo, 0.01 mg/kg, buccal 0.010 mg/kg, mean, read-out: Plasma concentration Day 1 Hour 24, Mean): 0.0155 ng/mL | concentration at 0.08 h (male, Göttingen, in vivo, 0.01 mg/kg, buccal 0.010 mg/kg, mean, read-out: Plasma concentration Day 3 Hour 0.08, Mean): 0.15 ng/mL
